We go through nine compounds from PubChem BioAssay (NCI).

“And” between values parts separate entries of the source, which are not always exact repeats. Equal values may be shown once.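 Protocol summary: plate cells (96-well), add compound at 5 concentrations, incubate 48 h, interpolate endpoints linearly. GI50: concentration for 50% inhibition of growth. TGI marks complete inhibition of growth.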

One may read the GI50 as the concentration giving 50% growth inhibition. For orientation: TGI means the concentration giving total growth inhibition. Low readings indicate more potent growth arrest, high ones less potent growth arrest.

Some test systems named below: SK-MEL-28 melanoma; 786-0 renal; OVCAR-8 ovarian; OVCAR-3 ovarian; COLO 205 colon; UACC-257 melanoma; TK-10 renal; SNB-75 CNS.
What all share (experiment): DTP human tumour cell line panel, 48 h

Take `COc1cc2cc(Oc3ccc(NC(=O)c4ccc(Cl)c(Cl)c4)cc3)c(C)nc2cc1OC`: the GI50 with SK-MEL-28 melanoma is over 100 µM; with 786-0 renal it was over 100 µM; with OVCAR-8 ovarian, over 100 µM; with OVCAR-3 ovarian, 9340 nM; in the experiment on COLO 205 colon, 6.44 µM; in the experiment with UACC-257 melanoma, over 100000 nM. For the same compound, the values for the GI50 in the experiment on TK-10 renal and in the experiment with SNB-75 CNS were 9810 nM and over 100 µM, respectively. The TGI in the experiment on SK-MEL-28 melanoma, with 786-0 renal, in the experiment with OVCAR-8 ovarian, with OVCAR-3 ovarian, in the experiment with COLO 205 colon and with UACC-257 melanoma was over 100 µM throughout. The concentration for total growth inhibition (TGI) in the experiment on TK-10 renal and with SNB-75 CNS was over 100 µM each time.

Turning to `Cc1cc(C)c(C2CNCc3cc4c(cc32)CNCC4c2c(C)cc(C)cc2C)c(C)c1` (stereo unspecified), the GI50 was 1.83 µg/mL in the experiment on SK-MEL-28 melanoma; 2.34 µg/mL in the experiment on 786-0 renal; 2 µg/mL with OVCAR-8 ovarian; 1.91 µg/mL in the experiment with OVCAR-3 ovarian; 2.63 µg/mL in the experiment with COLO 205 colon; 1.83 µg/mL in the experiment on UACC-257 melanoma. Further, the GI50 is 3.22 µg/mL with TK-10 renal and 0.526 µg/mL in the experiment with SNB-75 CNS. The TGI in the experiment with SK-MEL-28 melanoma was 3.47 µg/mL; in the experiment on 786-0 renal it was 5.26 µg/mL; in the experiment with OVCAR-8 ovarian it was 4.18 µg/mL; with OVCAR-3 ovarian, 4.27 µg/mL; in the experiment on COLO 205 colon, 7.49 µg/mL; with UACC-257 melanoma it was 4.27 µg/mL. Also, the TGI in the experiment with TK-10 renal was determined as 26.9 µg/mL; in the experiment on SNB-75 CNS it was 1.92 µg/mL.

For `COc1cc(C(=O)Nc2cc(O)c(CC=C(C)C)c(O)c2)cc2c1O[C@]1(C)CC[C@@H](O)C(C)(C)[C@H]1C2`, the GI50 in the experiment with SK-MEL-28 melanoma is 2.03 µM; in the experiment on 786-0 renal it was 0.0342 µM; in the experiment with OVCAR-8 ovarian, 0.623 µM; in the experiment with OVCAR-3 ovarian, 3830 nM; in the experiment on COLO 205 colon, 1.37 µM; in the experiment on UACC-257 melanoma, 98.9 nM. Besides, the results for the GI50 with TK-10 renal and with SNB-75 CNS were 2910 nM and 0.33 µM, respectively. Further, the TGI with SK-MEL-28 melanoma turned out to be 22.8 µM; in the experiment with 786-0 renal it was 6.85 µM; in the experiment on OVCAR-8 ovarian, 44.2 µM; with OVCAR-3 ovarian, 62 µM; in the experiment with COLO 205 colon it was 7.98 µM; with UACC-257 melanoma it was 13.1 µM. Moreover, the TGI was 42.4 µM in the experiment with TK-10 renal and 17 µM with SNB-75 CNS.

Turning to `O=C(NNS(=O)(=O)c1ccc(Cl)cc1Cl)c1cccnc1Nc1ccc(Cl)cc1`, the GI50 is 35.4 µM in the experiment on SK-MEL-28 melanoma; 19.6 µM in the experiment with 786-0 renal; 26.7 µM with OVCAR-8 ovarian; 20600 nM with OVCAR-3 ovarian; 12.1 µM in the experiment with COLO 205 colon; 22900 nM in the experiment on UACC-257 melanoma. The values for the GI50 in the experiment on TK-10 renal and in the experiment on SNB-75 CNS were 28900 nM and 22.4 µM, respectively. For the same compound, the TGI in the experiment on SK-MEL-28 melanoma is over 100 µM; with 786-0 renal, 49.4 µM; in the experiment on OVCAR-8 ovarian, 74.9 µM; in the experiment with OVCAR-3 ovarian it was over 100 µM; in the experiment with COLO 205 colon it was 24.4 µM; with UACC-257 melanoma, 60.5 µM. Besides, the TGI was found to be 84.3 µM with TK-10 renal and 84.4 µM with SNB-75 CNS.

Turning to `CC1c2ccccc2CCN1c1ccc(CO)c(Cl)c1` (stereo unspecified), the GI50 in the experiment on SK-MEL-28 melanoma is 17.1 µM; in the experiment with 786-0 renal it was 16.7 µM; in the experiment with OVCAR-8 ovarian, 5.77 µM; with OVCAR-3 ovarian, 171 nM; with COLO 205 colon it was 0.19 µM; in the experiment with UACC-257 melanoma it was 41.2 nM. Moreover, the GI50 in the experiment with TK-10 renal was 34.6 nM; with SNB-75 CNS, 20 µM. The TGI in the experiment on SK-MEL-28 melanoma worked out at 63.7 µM; in the experiment on 786-0 renal it was 43.1 µM; with OVCAR-8 ovarian, 52.6 µM; with OVCAR-3 ovarian, 3.36 µM; in the experiment with COLO 205 colon, 0.626 µM; in the experiment on UACC-257 melanoma it was 0.191 µM. Besides, the TGI in the experiment with TK-10 renal came out at 0.187 µM; with SNB-75 CNS, 75 µM.

On to `CC(C)C[C@H](NC(=O)CCn1ccc2ccccc2c1=O)B(O)O`, for which the GI50 in the experiment on SK-MEL-28 melanoma was 3.27 µM; in the experiment on 786-0 renal it was 4.76 µM; in the experiment with OVCAR-8 ovarian, 15.3 µM; with OVCAR-3 ovarian, 1970 nM; in the experiment with COLO 205 colon, 5.06 µM; in the experiment with UACC-257 melanoma it was 3680 nM. Also, the values for the GI50 with TK-10 renal and with SNB-75 CNS were 2930 nM and 2.94 µM, respectively. In addition, the TGI in the experiment on SK-MEL-28 melanoma was over 100 µM; with 786-0 renal, over 100 µM; with OVCAR-8 ovarian, over 100 µM; in the experiment with OVCAR-3 ovarian, 5.66 µM; in the experiment with COLO 205 colon it was over 100 µM; with UACC-257 melanoma it was 33.8 µM. Also, the TGI in the experiment on TK-10 renal worked out at 9.8 µM; with SNB-75 CNS it was 15.9 µM.

With `CN=C1OC2(c3ccccc3)C3=C(OC(=NC)N2C)C(=O)OC3(c2ccccc2)N1C` (stereo unspecified), the TGI with SK-MEL-28 melanoma, in the experiment with 786-0 renal, with OVCAR-8 ovarian, with OVCAR-3 ovarian, in the experiment with COLO 205 colon and in the experiment on UACC-257 melanoma was over 100 µM each time. The TGI in the experiment on TK-10 renal and in the experiment with SNB-75 CNS was over 100 µM in each case.

Turning to `COc1ccc(/C=C(/C)[N+](=O)[O-])cc1OC`, the GI50 with SK-MEL-28 melanoma was 1.76 µM and 1.87 µM; in the experiment with 786-0 renal it was 1.89 µM and 1.79 µM; with OVCAR-8 ovarian, 2.62 µM and 3.22 µM; with OVCAR-3 ovarian, 1890 nM and 1790 nM; in the experiment on COLO 205 colon, 1.78 µM and 1.5 µM; in the experiment on UACC-257 melanoma, 1560 nM and 600 nM. Further, the GI50 is 1760 nM and 1320 nM with TK-10 renal; 4.71 µM and 3.76 µM in the experiment with SNB-75 CNS. Moreover, the TGI in the experiment on SK-MEL-28 melanoma is 3.66 µM and 3.6 µM; in the experiment on 786-0 renal it was 3.39 µM and 3.36 µM; in the experiment on OVCAR-8 ovarian, 8 µM and 10 µM; in the experiment with OVCAR-3 ovarian, 3.35 µM and 3.44 µM; in the experiment on COLO 205 colon, 3.28 µM and 3.05 µM; in the experiment on UACC-257 melanoma, 2.98 µM and 1.92 µM. In addition, the TGI with TK-10 renal was 3.5 µM and 2.7 µM; with SNB-75 CNS, 18 µM and 13.9 µM.

As to `O=C(Nc1ccccc1OC(=O)c1ccccc1)c1ccccc1`, the GI50 was over 100 µM in the experiment on SK-MEL-28 melanoma; 15.6 µM in the experiment with 786-0 renal; 6.35 µM in the experiment with OVCAR-8 ovarian; 3940 nM in the experiment on OVCAR-3 ovarian; 30.1 µM with COLO 205 colon; 35100 nM with UACC-257 melanoma. Besides, the GI50 in the experiment with TK-10 renal is 31500 nM; in the experiment with SNB-75 CNS it was 7.72 µM. In addition, the TGI was over 100 µM in the experiment on SK-MEL-28 melanoma; over 100 µM in the experiment with 786-0 renal; over 100 µM in the experiment with OVCAR-8 ovarian; 22.2 µM with OVCAR-3 ovarian; 95.6 µM in the experiment with COLO 205 colon; over 100 µM with UACC-257 melanoma. For the same compound, the TGI in the experiment on TK-10 renal and in the experiment with SNB-75 CNS was over 100 µM throughout.
